Values after ≈ are worked out from the molar mass of the structure shown.
Tests used:
Type in all cases: functional
[1] = system: Musca domestica; test: Insecticidal activity against Musca domestica (house fly) assessed as mortality at 0.250 ug/insect after 24 hr
[2] = system: Musca domestica; test: Insecticidal activity against Musca domestica (house fly) assessed as mortality at 0.031 ug/insect after 24 hr
[3] = system: Culex pipiens pallens; test: Insecticidal activity against Culex pipiens pallens (mosquito) assessed as mortality at 0.00025 ug/insect after 24 hr
[4] = system: Culex pipiens pallens; test: Insecticidal activity against Culex pipiens pallens (mosquito) assessed as mortality at 0.004 ug/insect after 24 hr
[5] = system: Culex pipiens pallens; test: Insecticidal activity against Culex pipiens pallens (mosquito) assessed as mortality at 0.001 ug/insect after 24 hr
[6] = system: Culex pipiens pallens; test: Insecticidal activity against Culex pipiens pallens (mosquito) assessed as mortality at 0.008 ug/insect after 24 hr
[7] = system: Musca domestica; test: Insecticidal activity against Musca domestica (house fly) assessed as mortality at 0.062 ug/insect after 24 hr
[8] = system: Culex pipiens pallens; test: Insecticidal activity against Culex pipiens pallens (mosquito) assessed as mortality at 0.002 ug/insect after 24 hr
[9] = system: Musca domestica; test: Insecticidal activity against Musca domestica (house fly) assessed as mortality at 0.125 ug/insect after 24 hr
[10] = system: Musca domestica; test: Insecticidal activity against Musca domestica (house fly) assessed as mortality at 0.015 ug/insect after 24 hr
[11] = system: Culex pipiens pallens; test: Insecticidal activity against Culex pipiens pallens (mosquito) assessed as mortality at 0.0005 ug/insect after 24 hr
[12] = system: Culex pipiens pallens; test: Insecticidal activity against Culex pipiens pallens (mosquito) assessed as mortality at 0.25 ug/insect after 24 hr
[13] = system: Culex pipiens pallens; test: Insecticidal activity against Culex pipiens pallens (mosquito) assessed as mortality at 0.10 ug/insect after 24 hr
[14] = system: Fusarium oxysporum; test: Antifungal activity against Fusarium oxysporum OPS 118 after 7 days by agar dilution method; details: OPS 118, 168 h
[15] = system: Musca domestica; test: Insecticidal activity against Musca domestica (house fly) assessed as mortality at 0.5 ug/insect after 24 hr
[16] = system: Culex pipiens pallens; test: Insecticidal activity against Culex pipiens pallens (mosquito) assessed as mortality at 1 ug/insect after 24 hr
[17] = system: Musca domestica; test: Insecticidal activity against Musca domestica (house fly) assessed as mortality at 0.25 ug/insect after 24 hr
[18] = system: Culex pipiens pallens; test: Insecticidal activity against Culex pipiens pallens (mosquito) assessed as mortality at 0.025 ug/insect after 24 hr
[19] = system: Culex pipiens pallens; test: Insecticidal activity against Culex pipiens pallens (mosquito) assessed as mortality at 2 ug/insect after 24 hr
[20] = system: Wickerhamomyces anomalus; test: Antifungal activity against Wickerhamomyces anomalus OPS 308 after 7 days by agar dilution method; details: Hansenula anomala, OPS 308, 168 h
[21] = system: Culex pipiens pallens; test: Insecticidal activity against Culex pipiens pallens (mosquito) assessed as mortality at 0.5 ug/insect after 24 hr
[22] = system: Candida albicans; test: Antifungal activity against Candida albicans ATCC 10231 after 7 days by agar dilution method; details: ATCC 10231, 168 h
[23] = system: Culex pipiens pallens; test: Insecticidal activity against Culex pipiens pallens (mosquito) assessed as mortality at 0.05 ug/insect after 24 hr
[24] = system: Aspergillus niger; test: Antifungal activity against Aspergillus niger ATCC 16404 after 7 days by agar dilution method; details: ATCC 16404, 168 h
[25] = system: Culex pipiens pallens; test: Insecticidal activity against Culex pipiens pallens (mosquito) assessed as mortality at 4 ug/insect after 24 hr
[26] = system: Musca domestica; test: Insecticidal activity against Musca domestica (house fly) assessed as mortality at 0.05 ug/insect after 24 hr
[27] = system: Culex pipiens pallens; test: Insecticidal activity against Culex pipiens pallens (mosquito) assessed as mortality at 5 ug/insect after 24 hr
[28] = system: Musca domestica; test: Insecticidal activity against Musca domestica (house fly) assessed as mortality at 1 ug/insect after 24 hr
[29] = system: Musca domestica; test: Insecticidal activity against Musca domestica (house fly) assessed as mortality at 0.10 ug/insect after 24 hr
[30] = system: Penicillium expansum; test: Antifungal activity against Penicillium expansum IFO 8800 after 7 days by agar dilution method; details: IFO 8800, 168 h
[31] = system: Musca domestica; test: Insecticidal activity against Musca domestica (house fly) assessed as mortality at 5 ug/insect after 24 hr
[32] = system: Musca domestica; test: Insecticidal activity against Musca domestica (house fly) assessed as mortality at 2 ug/insect after 24 hr
[33] = system: Musca domestica; test: Insecticidal activity against Musca domestica (house fly) assessed as mortality at 4 ug/insect after 24 hr
[34] = system: Trichophyton mentagrophytes; test: Antifungal activity against Trichophyton mentagrophytes IFO 32412 after 7 days by agar dilution method; details: IFO 32412, 168 h

| Compound | MIC [14] | MIC [20] | MIC [22] | MIC [24] | Activity [27] | MIC [30] | Activity [31] | MIC [34] | further results |
| --- | --- | --- | --- | --- | --- | --- | --- | --- | --- |
| COP(=S)(OC)Oc1ccc([N+](=O)[O-])c(C)c1 [FENITROTHION] |  |  |  |  |  |  |  |  | Activity [1]: 100%; Activity [2]: 3.3%; Activity [3]: 0%; Activity [4]: 86.7%; Activity [5]: 16.7%; Activity [6]: 100%; Activity [7]: 46.7%; Activity [8]: 50%; Activity [9]: 93.3%; Activity [10]: 0%; Activity [11]: 3.3% |
| NN1C(=O)CSC1=S [AMINORHODANINE] | 400 µg/mL (≈ 2.7 mM) | 25 µg/mL (≈ 0.169 mM) | 12.5 µg/mL (≈ 0.0843 mM) | 6.25 µg/mL (≈ 0.0422 mM) | 100% | 100 µg/mL (≈ 0.675 mM) | 100% | 12.5 µg/mL (≈ 0.0843 mM) | Activity [12]: 53.3%; Activity [13]: 33.3%; Activity [15]: 36.7%; Activity [16]: 86.7%; Activity [17]: 17.9%; Activity [18]: 3.3%; Activity [19]: 100%; Activity [21]: 60%; Activity [23]: 16.7%; Activity [25]: 100%; Activity [26]: 0%; Activity [28]: 60%; Activity [29]: 10%; Activity [32]: 63.3%; Activity [33]: 86.7% |
| O=C1CSC(=S)N1 [RHODANINE] | 800 µg/mL (≈ 6.01 mM) | 400 µg/mL (≈ 3 mM) | 800 µg/mL (≈ 6.01 mM) | 800 µg/mL (≈ 6.01 mM) | 0% | > 1000 µg/mL | 0% | 200 µg/mL (≈ 1.5 mM) |  |
| O=C(NN1C(=O)CSC1=S)c1ccccc1 [N-BENZOYLAMINORHODANINE] | > 1000 µg/mL | > 1000 µg/mL | > 1000 µg/mL | > 1000 µg/mL | 0% | > 1000 µg/mL | 0% | > 1000 µg/mL |  |
| CC(=O)NN1C(=O)CSC1=S [N-ACETYLAMINORHODANINE] | > 1000 µg/mL | > 1000 µg/mL | > 1000 µg/mL | > 1000 µg/mL | 0% | > 1000 µg/mL | 0% | > 1000 µg/mL |  |

— ChEMBL document CHEMBL3046198, “Insecticidal and antifungal activities of aminorhodanine derivatives” (1998)
